Data reported in patent publication US20240228446A1, “PREPARATION METHOD FOR BICYCLIC COMPOUND AND APPLICATION AS ANTIFUNGAL AGENT” (priority 2021, published 2024).
≈ marks a conversion by molar mass, not a printed value. Where two headings read alike, the source gives them in different places.

Experiments:
[1] = Drug-drug interaction / pharmacokinetic study of single drug and combination with nifedipine by gavage; conditions: CD1 mice, ketoconazole 30 mg/kg alone vs ketoconazole 30 mg/kg + nifedipine 15 mg/kg
Protocol: The dosing solution was prepared on the day of administration. An appropriate amount of nifedipine was precisely weighed into a centrifuge tube, then an appropriate volume of 0.5% MC was added thereto and vortexed to dissolve, resulting in a dosing solution with a concentration of 1.5 mg/mL.
Appropriate amounts of ketoconazole and isavuconazonium sulfate (CAS #946075-13-4) were precisely weighed and placed into separate centrifuge tubes. An appropriate volume of 0.5% MC was added to each tube and vortexed to dissolve, resulting in dosing solutions with concentrations of 3 mg/mL and 12 mg/mL, respectively.
An appropriate amount of the compound of the example of the present disclosure was precisely weighed into a centrifuge tube, then an appropriate volume of 16% SBECD was added thereto and vortexed to dissolve, resulting in a dosing solution with a concentration of 10 mg/mL.
CD1 mice, 6 to 8 weeks old, male, were divided into seven groups. […]

[2] = test system: Aspergillus fumigatus ATCC MYA-4609; assay: Minimal inhibitory concentration (MIC) test on fungal growth (CLSI M38, Aspergillus); format: cell-based; conditions: for MIC: Aspergillus fumigatus, read-out: MIC Aspergillus fumigatus ATCC MYA-4609
Protocol: • RPMI1640 medium: Brand: Gibco, article number: 31800-014 • Sabouraud dextrose agar (SDA): Brand: Hope Bio, article number: HB0253-81 • Voriconazole: Brand: Adamas, article number: 22105A • Amphotericin B: Brand: AbCam, article number: ab141199
MIC test was conducted in accordance with the guidelines and requirements of CLSI M27 (for yeasts) and M38 (for Aspergillus).
Strain preparation: The strains were inoculated 1 day in advance by streaking on SDA plates with glycerol strains stored at −80° C. The strains were cultured at 35° C. and 40 to 60% humidity for 18 to 24 hours. Streak inoculation of Aspergillus fumigatus and Cryptococcus neoformans was required to be done 3 days and 2 days in advance, respectively.
Preparation of culture medium and compounds: The liquid culture medium RPMI was prepared with pure water, and 0.165 mol/L MOPS was added to adjust the pH to 7.0. The mixture was filtered with a 0.22 μm-membrane filter, sterilized, and stored at 4° C. (no more than 3 months). 0.85% physiological saline was sterilized at 121° C. for 30 min and then stored at room temperature (no more than 1 week). The compounds were dissolved in DMSO to 12.8 mg/mL and stored at −20° C.
For Aspergillus, 5 mL of physiological saline was added to cover the mycelium, and the spores were gently scraped off with a spreader. The spore suspension was then transferred to a sterile test tube. An appropriate amount of spore suspension was taken and counted under a microscope using a hemocytometer. Spore concentration was adjusted to approximately 0.4 to 5×10^4 spores/mL using RPMI1640 medium.
The compound was diluted to the highest 800 μg/mL (or 400 μg/mL) with DMSO, and a 10-step 2-fold gradient dilution was performed, resulting in 11 concentrations. 2 μL of the gradient-diluted compound was transferred to the corresponding wells of a 96-well plate, and then 198 μL of the inoculum was transferred to the test plate. The plate was incubated at 35° C. for 24 hours (Aspergillus fumigatus and Cryptococcus neoformans were incubated for 48 and 72 hours, respectively).
After the incubation, the growth of the fungi was visually observed. The lowest concentration of the compound that inhibited the growth of yeast by 50% (inhibited Aspergillus by 100%) was defined as the minimum inhibitory concentration (MIC, μg/mL). A magnifying glass or reading at OD530 nm could be used to assist in determining the MIC. Photos were taken of the test plates for record keeping.

[3] = test system: Candida albicans ATCC MYA-2876; assay: Minimal inhibitory concentration (MIC) test on fungal growth (CLSI M27, yeasts); format: cell-based; conditions: for MIC: Candida albicans, read-out: MIC Candida albicans ATCC MYA-2876
Outline: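 Broth microdilution followed CLSI M27 in RPMI1640 buffered with 0.165 M MOPS, pH 7.0, with a final inoculum of 500–2500 CFU/mL. Eleven 2-fold compound concentrations were tested, and plates were incubated 24 h at 35 °C. MIC was the lowest concentration giving 50% growth inhibition, read visually with optional OD530 assistance.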

[4] = lowest concentration inhibiting Aspergillus by 100%, 35° C., 48 hours, RPMI1640
[5] = lowest concentration inhibiting growth of yeast by 50%, 35° C., 24 hours, RPMI1640

| SMILES | MIC [2, 4] | MIC [3, 5] | further results |
| --- | --- | --- | --- |
| CC(=O)N1CCN(c2ccc(OCC3COC(Cn4ccnc4)(c4ccc(Cl)cc4Cl)O3)cc2)CC1 (stereo not shown) [ketoconazole] | – | – | exposure to ketoconazole, monotherapy group vs combination therapy group [1]: not significantly different |
| CS(=O)(=O)COc1ccc(C23CC(C(F)(F)[C@](O)(Cn4cnnn4)c4ccc(F)cc4F)(C2)C3)cc1 (stereo in doubt) [Compound 131A] | 4 µg/mL (≈ 7.6 µM) | ≤ 0.0039 µg/mL | – |
| O[C@H](COc1ccc(C23CC(C(F)(F)[C@](O)(Cn4cnnn4)c4ccc(F)cc4F)(C2)C3)cc1F)C(F)(F)F [Compound 134A] | 2 µg/mL (≈ 3.54 µM) | ≤ 0.0039 µg/mL | – |
| O=C(COc1ccc(C23CC(C(F)(F)C(O)(Cn4cncn4)c4ccc(F)cc4F)(C2)C3)cc1)NC1CC1 (stereo not shown) [Compound 129] | 4 µg/mL (≈ 7.54 µM) | 0.0078 µg/mL (≈ 0.0147 µM) | – |
| O[C@@](Cn1cnnn1)(c1ccc(F)cc1F)C(F)(F)C12CC(c3ccc(OCC4(F)COC4)cc3)(C1)C2 [Compound 121A] | – | – | MIC Aspergillus fumigatus ATCC MYA-4609 [2, 4]: 4 µg/mL (≈ 7.66 µM); MIC Candida albicans ATCC MYA-2876 [3, 5]: ≤0.0039 µg/mL |
| N#Cc1ccc(C23CC(C(F)(F)[C@](O)(Cn4cncn4)c4ccc(F)cc4F)(C2)C3)cc1 [Compound 27A] | 0.5 µg/mL (≈ 1.13 µM) | ≤ 0.0039 µg/mL | – |
| OC(Cn1cncn1)(c1ccc(F)cc1F)C(F)(F)C12CC(c3ccc(OC(F)(F)F)cc3)(C1)C2 (stereo not shown) [Compound 25] | 2 µg/mL (≈ 3.99 µM) | 0.0078 µg/mL (≈ 0.0156 µM) | – |
| OC(COc1ccc(C23CC(C(F)(F)C(O)(Cn4cnnn4)c4ccc(F)cc4F)(C2)C3)cc1)CC(F)(F)F (stereo not shown) [Compound 142] | – | – | MIC Aspergillus fumigatus ATCC MYA-4609 [2, 4]: 8 µg/mL (≈ 14.3 µM); MIC Candida albicans ATCC MYA-2876 [3, 5]: 0.0078 µg/mL (≈ 0.0139 µM) |
| O[C@H](COc1ccc(C23CC(CC(O)(Cn4cncn4)c4ccc(F)cc4F)(C2)C3)cc1)C(F)(F)F (stereo partly shown) [Compound 90] | 0.5 µg/mL (≈ 0.981 µM) | ≤ 0.0039 µg/mL | – |
| OCC(F)(F)COc1ccc(C23CC(C(F)(F)[C@](O)(Cn4cnnn4)c4ccc(F)cc4F)(C2)C3)cc1 [Compound 50A] | 2 µg/mL (≈ 3.78 µM) | 0.0078 µg/mL (≈ 0.0148 µM) | – |
| N#CCOc1ccc(C23CC(C(F)(F)C(O)(Cn4cnnn4)c4ccc(F)cc4F)(C2)C3)cc1 (stereo not shown) [Compound 69] | – | – | MIC ([2]; 48 h): 4 µg/mL (≈ 8.45 µM); MIC ([3]; 24 h): 0.016 µg/mL (≈ 0.0338 µM) |
| OC(Cn1cnnn1)(c1ccc(F)cc1F)C(F)(F)C12CC(c3ccc(OCC4(F)COC4)cc3)(C1)C2 (stereo not shown) [Compound 121] | 8 µg/mL (≈ 15.3 µM) | 0.0078 µg/mL (≈ 0.0149 µM) | – |
| CS(=O)(=O)COc1ccc(C23CC(C(F)(F)C(O)(Cn4cnnn4)c4ccc(F)cc4F)(C2)C3)cc1 (stereo not shown) [Compound 131] | 8 µg/mL (≈ 15.2 µM) | 0.0078 µg/mL (≈ 0.0148 µM) | – |
| Oc1ccc(C23CC(C(F)(F)C(O)(Cn4cncn4)c4ccc(F)cc4F)(C2)C3)cc1 (stereo not shown) [Compound 21] | 2 µg/mL (≈ 4.61 µM) | ≤ 0.0039 µg/mL | – |
| O[C@@](Cn1cnnn1)(c1ccc(F)cc1F)C(F)(F)C12CC(c3ccc(OCC(F)(F)F)cc3)(C1)C2 [Compound 3A] | 1 µg/mL (≈ 1.94 µM) | ≤ 0.0039 µg/mL | – |
| O[C@@](Cn1cnnn1)(c1ccc(F)cc1F)C(F)(F)C12CC(c3ccc(O[C@H]4CCOC4)cc3)(C1)C2 [Compound 41A] | – | – | MIC Aspergillus fumigatus ATCC MYA-4609 [2, 4]: 8 µg/mL (≈ 15.9 µM); MIC Candida albicans ATCC MYA-2876 [3, 5]: ≤0.0039 µg/mL |
| O[C@@H](COc1ccc(C23CC(C(F)(F)[C@](O)(Cn4cnnn4)c4ccc(F)cc4F)(C2)C3)cc1)CC(F)(F)F (relative stereo) [Compound 142B] | 4 µg/mL (≈ 7.14 µM) | ≤ 0.0039 µg/mL | – |
| OC(COc1ccc(C23CC(C(F)(F)C(O)(Cn4cnnn4)c4ccc(F)cc4F)(C2)C3)cc1)C(F)(F)F (stereo not shown) [Compound 51] | 4 µg/mL (≈ 7.32 µM) | 0.0078 µg/mL (≈ 0.0143 µM) | – |
| N#Cc1ccc(C23CC(C(F)(F)[C@](O)(Cn4cncn4)c4cc(F)ccc4F)(C2)C3)cc1 [Compound 29A] | 1 µg/mL (≈ 2.26 µM) | ≤ 0.0039 µg/mL | – |
| OC(COc1ccc(C23CC(C(F)(F)C(O)(Cn4cnnn4)c4ccc(F)cc4F)(C2)C3)cc1)C1CC1 (stereo not shown) [Compound 144] | 8 µg/mL (≈ 15.4 µM) | 0.0078 µg/mL (≈ 0.015 µM) | – |
| O[C@H](COc1ccc(C23CC(C(F)(F)C(O)(Cn4cnnn4)c4ccc(F)cc4F)(C2)C3)cc1F)C(F)(F)F (stereo partly shown) [Compound 134] | 4 µg/mL (≈ 7.09 µM) | 0.0078 µg/mL (≈ 0.0138 µM) | – |
| CC(C)(O)COc1ccc(C23CC(C(F)(F)C(O)(Cn4cncn4)c4ccc(F)cc4F)(C2)C3)cc1 (stereo not shown) [Compound 37] | 2 µg/mL (≈ 3.96 µM) | ≤ 0.0039 µg/mL | – |
